Test results taken from patent US7507834B2, “Substituted anilinopyrazoles” (SmithKline Beechan Corporation, priority 2003, dated 2009).

Biological target: CDK2 (Homo sapiens, UniProt P24941)
Test: CDK2 substrate phosphorylation assay
Format: biochemical
Settings: CDK2 expressed in baculovirus system; peptide Biotin-aminohexyl-ARRPMSPKKKA-NH2, [g-32P]ATP; pIC50 = −log10(IC50)
Method: The compounds of the present invention have valuable pharmacologic properties. Different compounds from this class are particularly effective at inhibiting CDK2. Substrate phosphorylation assays were carried out as follows:
Cyclin dependent protein kinase 2 assays utilized the peptide Biotin-aminohexyl-ARRPMSPKKKA-NH2 (SEQ ID NO:1) as phosphoryl group acceptor. CDK2 was expressed utilizing a baculovirus expression system and was partially purified to comprise 20-80% of total protein, with no detectable competing reactions present. Typically, assays were performed by incubating enzyme (0.2-10 nM), with and without inhibitor, peptide substrate ([…]), [g-32P]ATP ([…]), and 10-20 mM Mg2+ for periods of time generally within the range 10-120 minutes. Reactions were terminated with 0.2-2 volumes of either 20% acetic acid or 50-100 mM EDTA buffered to pH 7 (substrate consumption <20%). The buffer employed in enzyme assay was 100 mM HEPES pH 7.5 containing 0.1 mg/mL BSA and 5% DMSO. Inhibitors were diluted in 100% DMSO prior to addition into the assay. Detection of peptide phosphorylation was accomplished by scintillation counting following either collection of peptide onto phosphocellulose filters (for reactions stopped with acetic acid), collection of peptide in wells of 96 well plates coated with Streptavidin (Pierce) (reactions were stopped with EDTA), or addition of Avidin coated Scintillant impregnated beads (Scintillation Proximity Assays from Amersham, reactions were stopped with EDTA). Counts detected by any of these methodologies minus the appropriate background (assays with additional 40 mM EDTA or lacking peptide substrate) were assumed to be proportional to the reaction initial rates, and IC50s were determined by a least squares fit to the equation CPM=Vmax*(1−([I]/(K+[I])))+nsb, or −pIC50s were determined by a fit to the equation CPM=nsb+(Vmax−nsb)/(1+(x/10x−pIC50)), where nsb are the background counts […]. Radioactivity was determined by liquid scintillation counting.

SMILES | IC50 [nM]
NS(=O)(=O)c1ccc(Nc2cc(-c3cccc(NC(=O)Nc4cc(C(F)(F)F)ccc4F)c3)n[nH]2)cc1 [Compound Il, 4-(5-{3-[3-(2-Fluoro-5-trifluoromethyl-phenyl)-ureido]-phenyl}-2H-pyrazol-3-ylamino)-benzenesulfonamide] | 10.2 to 100
Nc1ccc(-c2cc(Nc3ccc(S(N)(=O)=O)cc3)[nH]n2)cc1 [Ih, 4-[5-(4-Amino-phenyl)-2H-pyrazol-3-ylamino]-benzenesulfonamide] | 0.102 to 1
Nc1cccc(-c2cc(Nc3ccc(S(N)(=O)=O)cc3)[nH]n2)c1 [Compound Ij, 4-[5-(3-Amino-phenyl)-2H-pyrazol-3-ylamino]-benzenesulfonamide] | 1.02 to 10
NS(=O)(=O)c1ccc(Nc2cc(-c3cccc(N4CCOCC4)c3)n[nH]2)cc1 [In, 4-[5-(3-Morpholin-4-yl-phenyl)-2H-pyrazol-3-ylamino]-benzenesulfonamide] | 102 to 20000
